Laboratory results: paper PMC12168616, “Machine Learning‐Assisted Prediction and Generation of Antimicrobial Peptides” (Small Science, 2025)
≈ marks a conversion by molar mass, not a printed value. Like-named read-outs stand apart in the source and are kept apart here. Ends that are not written are not given here. Peptide text beside a SMILES is read from it.

Tests used:
A. Baumannii AB5075 = format: cell-based, Acinetobacter baumannii
Source text: (§1) To evaluate the susceptibility of the different peptide sequences against clinical isolates of various bacterial pathogens, we used the minimum inhibitory concentration (MIC) assay. The MIC measures the efficacy of peptides in inhibiting bacterial growth. The specific MIC values of various peptides against Enterococcus […] ATCC19433, Staphylococcus aureus ATCC25923, Klebsiella pneumoniae ATCC43816, Acinetobacter baumannii AB5075, Pseudomonas aeruginosa PAO1, and Enterobacter species ATCC13048 were determined by measuring optical density at 600 nm (OD600 nm). […] The growth inhibition curves were used to estimate the MIC values.
(§2) Bacteria: The MIC was the lowest concentration of a drug, which inhibited the visible growth of a bacteria and could be determined by reading the absorption at 600 nm (OD600 nm) using a spectrophotometer. The peptides were subjected to antibacterial testing against gram‐positive and gram‐negative pathogens. All the ESKAPE pathogens (E. faecalis ATCC19433, S. aureus ATCC25923, K. pneumoniae ATCC43816, A. baumannii AB5075, P. aeruginosa PAO1, and E. aerogenes ATCC13048) were inoculated from nutrient agar plates to obtain a bacterial suspension by incubating the colony of bacteria in a flask containing 10 mL of Mueller Hinton broth II (MHB) at 37 °C for 24 h with gentle shaking (75 rpm). The bacterial suspensions were then diluted in MHB to 1 × 10^6 colony‐forming units (CFU) of bacteria mL^−1. Next, using serial dilutions in 96‐well plates, different concentrations of each peptide from 1.5–400 μM were prepared. 100 μL of peptide solutions at final concentration ranging between 0.75–200 μM were then added to a 96‐well plate containing 100 μL of diluted bacterial suspension. After 18–24 h incubation at 37 °C, the turbidity of the samples was observed, and the optical density of bacteria was measured using OD600 nm. All assays were performed in duplicates. The MICs were calculated as ≥90% inhibition of bacteria growth compared to the positive control wells.

E. Faecalis ATCC19433 = format: cell-based, Enterococcus faecalis
Source text: as §1, §2

S. Aureus ATCC25923 = format: cell-based, Staphylococcus aureus
Source text: as §1, §2

E. Aerogenes ATCC13048 = format: cell-based, Enterobacter aerogenes
Source text: as §1, §2

P. Aeruginosa PAO1 = format: cell-based, Pseudomonas aeruginosa
Source text: as §1, §2

K. Pneumoniae ATCC43816 = format: cell-based, Klebsiella pneumoniae
Source text: as §1, §2

ESKAPE pathogens = assay: MIC assay, bacteria, strain of the six not assignable or not specified; format: cell-based; details: one of the six ESKAPE strains, left to right order; MHB II, 18–24 h, 37 °C, OD600 nm, ≥90% inhibition, duplicates
Source text: as §1, §2

[1] = broth microdilution, Mueller Hinton broth II, peptide 0.75–200 μM, 18–24 h at 37 °C, OD600 nm, MIC = ≥90% inhibition, duplicates

Row | Molecule | MIC A. Baumannii AB5075 (A. Baumannii AB5075; AB5075) | MIC E. Faecalis ATCC19433 (E. Faecalis ATCC19433; ATCC19433) | MIC S. Aureus ATCC25923 (S. Aureus ATCC25923; ATCC25923) | MIC E. Aerogenes ATCC13048 (E. Aerogenes ATCC13048; ATCC13048) | MIC P. Aeruginosa PAO1 (P. Aeruginosa PAO1; PAO1) | MIC K. Pneumoniae ATCC43816 (K. Pneumoniae ATCC43816; ATCC43816) | other results
1 | CC[C@H](C)[C@H](NC(=O)[C@H](CCC(N)=O)NC(=O)[C@@H]1CCCN1C(=O)[C@H](Cc1ccccc1)NC(=O)[C@H](CCCCN)NC(=O)[C@H](CCCCN)NC(=O)CNC(=O)[C@H](Cc1ccccc1)NC(=O)[C@@H](N)Cc1c[nH]c2ccccc12)C(=O)N[C@@H](C)C(=O)N[C@@H](CS)C(=O)N[C@@H](CCCCN)C(=O)N[C@@H](CCCNC(=N)N)C(=O)N[C@@H](CS)C(=O)N[C@@H](CS)C(N)=O [MLWH 43] (H-WFGKKFPQIACKRCC-NH2) | 25 µM (≈ 45.4 µg/mL) |  |  |  |  |  | 
2 | AIVKKGWIKILAWVF-NH2 [MLWH 36] |  | 100 µM | 6 µM | 100 µM | 200 µM | 100 µM | 
3 | ALFLGGIWKKLPKAI-NH2 [MLWH02] | 100 µM |  |  |  | 100 µM |  | 
4 | ALKAKLKFPGKFLFK-NH2 [MLWH 25] | 100 µM |  |  | 200 µM | 200 µM | 100 µM | 
5 | AVLIAKLFHKLNKIK-NH2 [MLWH 15] | 100 µM | 200 µM |  |  | 200 µM | 200 µM | 
6 | AWLKFKKKFGLFAKI-NH2 [MLWH11] | 12.5 µM | 25 µM | 100 µM | 12.5 µM | 25 µM | 12.5 µM | 
7 | FLPLIILKFIGKLLP-NH2 [MLWH 19] | 200 µM | 1.5 µM | 3 µM |  |  |  | 
8 | FNKGKKFFFKFIKWV [MLWH73, peptide generated using algorithm, list 2] |  |  |  |  |  |  | MIC E. Faecalis ATCC19433 (E. Faecalis ATCC19433; [1]): 25 µM; MIC S. Aureus ATCC25923 (S. Aureus ATCC25923; [1]): 25 µM; MIC E. Aerogenes ATCC13048 (E. Aerogenes ATCC13048; [1]): 25 µM; MIC P. Aeruginosa PAO1 (P. Aeruginosa PAO1; [1]): 25 µM; MIC A. Baumannii AB5075 (A. Baumannii AB5075; [1]): 12.5 µM; MIC K. Pneumoniae ATCC43816 (K. Pneumoniae ATCC43816; [1]): 12.5 µM
9 | FVTITLKNFAKKKVG-NH2 [MLWH 28] | 200 µM |  |  | 200 µM |  | 200 µM | 
10 | GGAFFKLTQKIIKKA-NH2 [MLWH07] | 50 µM |  |  |  | 200 µM | 200 µM | 
11 | GIKIIGIKVATFLKA-NH2 [MLWH03] |  |  |  |  |  | 200 µM | 
12 | GKIFGKLFLALIKMW-NH2 [MLWH06] | 25 µM | 12.5 µM | 25 µM | 200 µM | 200 µM |  | 
13 | GLLTTGKKKLLGIIA-NH2 [MLWH 26] | 200 µM |  |  |  |  |  | 
14 | GLWKIKLAFGKMFAK-NH2 [MLWH05] | 12.5 µM | 25 µM | 100 µM | 25 µM | 25 µM | 25 µM | 
15 | GPLMGAFIKKLLPKF-NH2 [MLWH 48] | 25 µM | 200 µM |  | 200 µM | 100 µM | 100 µM | 
16 | IKVILKLVTNKGNGI-NH2 [MLWH 21] | 50 µM | 200 µM |  | 200 µM |  | 200 µM | 
17 | KFITKFVKGLGLGTL-NH2 [MLWH 23] | 50 µM |  |  |  | 200 µM | 200 µM | 

Row | Molecule | MIC A. Baumannii AB5075 (A. Baumannii AB5075; AB5075) | MIC E. Faecalis ATCC19433 (E. Faecalis ATCC19433; ATCC19433) | MIC S. Aureus ATCC25923 (S. Aureus ATCC25923; ATCC25923) | MIC E. Aerogenes ATCC13048 (E. Aerogenes ATCC13048; ATCC13048) | MIC P. Aeruginosa PAO1 (P. Aeruginosa PAO1; PAO1) | MIC K. Pneumoniae ATCC43816 (K. Pneumoniae ATCC43816; ATCC43816) | other results
18 | KGFAKMFRLLKKLAR-NH2 [MLWH 32] | 3 µM | 12.5 µM | 6 µM | 25 µM | 25 µM | 12.5 µM | 
19 | KHVFAFLGGKLVKLK-NH2 [MLWH 35] | 50 µM |  |  |  |  | 200 µM | 
20 | KLKGLIFAWFKGIIA-NH2 [MLWH 45] | 25 µM | 25 µM | 100 µM | 25 µM | 200 µM | 100 µM | 
21 | LGVKPVFKFFKFFGK [MLWH51, peptide generated using algorithm, list 2] |  |  |  |  |  |  | MIC E. Faecalis ATCC19433 (E. Faecalis ATCC19433; [1]): 100 µM; MIC S. Aureus ATCC25923 (S. Aureus ATCC25923; [1]): 200 µM; MIC E. Aerogenes ATCC13048 (E. Aerogenes ATCC13048; [1]): 200 µM; MIC P. Aeruginosa PAO1 (P. Aeruginosa PAO1; [1]): 50 µM; MIC A. Baumannii AB5075 (A. Baumannii AB5075; [1]): 12.5 µM; MIC K. Pneumoniae ATCC43816 (K. Pneumoniae ATCC43816; [1]): 100 µM
22 | LLGFTAFIKGQIKTA-NH2 [MLWH09] | 200 µM | 50 µM | 50 µM | 100 µM | 200 µM | 100 µM | 
23 | NFKIIKKVGIKLKGA-NH2 [MLWH 33] | 100 µM |  |  |  |  |  | 
24 | PKWHKNKMFKFKRKF [MLWH98, peptide generated using algorithm, list 2] |  |  |  |  |  |  | MIC, Table S7, 4th value printed in the line (strain column cannot be told) (ESKAPE pathogens): 200 µM
25 | PSKYAKIAIKFHKQI [MLWH61, peptide generated using algorithm, list 2] |  |  |  |  |  |  | MIC, Table S7, 4th value printed in the line (strain column cannot be told) (ESKAPE pathogens): 50 µM
26 | QGWIKIILPHIRYIK [MLWH57, peptide generated using algorithm, list 2] |  |  |  |  |  |  | MIC, Table S7, 4th value printed in the line (strain column cannot be told) (ESKAPE pathogens): 25 µM
27 | RMFFKFKKKFKKWGQ [MLWH74, peptide generated using algorithm, list 2] |  |  |  |  |  |  | MIC E. Faecalis ATCC19433 (E. Faecalis ATCC19433; [1]): 200 µM; MIC S. Aureus ATCC25923 (S. Aureus ATCC25923; [1]): 50 µM; MIC E. Aerogenes ATCC13048 (E. Aerogenes ATCC13048; [1]): 100 µM; MIC P. Aeruginosa PAO1 (P. Aeruginosa PAO1; [1]): 200 µM; MIC A. Baumannii AB5075 (A. Baumannii AB5075; [1]): 25 µM; MIC K. Pneumoniae ATCC43816 (K. Pneumoniae ATCC43816; [1]): 25 µM
28 | TKFGQKVIKLIAQFL-NH2 [MLWH 24] | 3 µM | 6 µM | 12.5 µM | 6 µM | 25 µM | 6 µM | 
29 | TLVKAVAHIAKLLKF-NH2 [MLWH 22] | 12.5 µM | 100 µM | 100 µM | 200 µM | 200 µM | 50 µM | 
30 | VHKAFRKGSGAAILW-NH2 [MLWH 27] | 200 µM |  |  |  |  | 200 µM | 
31 | VIYSIGLRIFNKIRP [MLWH99, peptide generated using algorithm, list 2] |  |  |  |  |  |  | MIC, Table S7, 4th value printed in the line (strain column cannot be told) (ESKAPE pathogens): 200 µM
32 | VQKLLKFKLKITAKA-NH2 [MLWH08] | 100 µM | 100 µM |  | 50 µM | 200 µM | 50 µM | 
33 | WFKAIAIGLGKFIAK-NH2 [MLWH 14] | 25 µM | 25 µM | 25 µM | 25 µM |  | 25 µM | 
34 | YFHLKKSFGKKLKRV-NH2 [MLWH 41] | 100 µM |  |  |  |  |  | 
